Experimental data from patent US20220177418A1, “INHIBITORS OF THE N-TERMINAL DOMAIN OF THE ANDROGEN RECEPTOR” (The Regents of the University of California, priority 2019, published 2022).

Assays:
Format in all cases: cell-based
[1] = system: AR-expressing (AR-positive) prostate cancer cell lines; experiment: MTT cell viability assay, AR-positive cells; conditions: growth inhibition grade, 6 days
Method: (§1) FIGS. 3A-Q. Growth inhibitory effects of selected compounds. The indicated cells were exposed to the indicated compounds for 6 days; cell viability was measured by MTT assay, and specific reporters were assayed using literature conditions. Results were normalized to that of vehicle control. Experiments were performed in quadruplicate; results are means±s.d.
(§2) JN053 and JN138-JN156 were synthesized and tested in biochemical and cell biologic assays that have been described elsewhere. The JN compounds were first studied in cell viability assays (MTT assay) to determine the efficacy and specificity of the JN compounds for inhibition of prostate cancer cell lines.
(§3) The growth inhibitory effect of the JN compounds was assessed through the MTT assay, which assesses the total number of viable cells in vitro. These experiments were performed in AR-expressing (AR-positive) prostate cancer cell lines to assess on target effects and AR-null (AR-negative) prostate cancer cell lines to assess off target effects (i.e. specificity).
AR-expressing (AR-pos): • LNCaP: full length AR • LNCaP AR: overexpression of full length AR • 22Rv1: full length AR and ARV7 • VCaP: full length AR and ARV7 • CWR22: full length AR and ARV7

androgen receptor (AR) = biological target: T1, androgen receptor (AR) (Homo sapiens, UniProt P10275); experiment: MMTV-luciferase reporter assay (AR-dependent); conditions: inhibition grade
T1 construct: either endogenously or exogenously express the full-length AR and ARV7
Method: (§4) The biochemical assays include reporter assays to determine the activity and specificity of these JN compounds to inhibit the transcriptional activity of the androgen receptor (AR). […] The reporter assays were performed in replicates and across a wide range of concentrations (generally […]).
(§5) The reporter systems utilized include: • MMTV-luciferase: AR-dependent • ARE-luciferase: AR-dependent • GRE-luciferase: glucocorticoid receptor (GR)-dependent • CRE-luciferase: CREB-dependent • AP1-luciferase: AP1 (jun and fos family)-dependent: • AR-TAD-luciferase: dependent on AR transactivation domain • CREB-TAD-luciferase: dependent on CREB transactivation domain • JUN-TAD-luciferase: dependent on c-Jun transactivation domain

[2] = system: AR-null (AR-negative) prostate cancer cell lines; experiment: MTT cell viability assay, AR-negative cells; conditions: growth inhibition grade, 6 days
Method: as §1, §2, §3

actin or the GR = experiment: Western blot protein degradation, other proteins; conditions: FIGS. 11(A)-11(D)
Method: (§6) LNCaP-AR cells were treated with JN103 and cycloheximide (to inhibit translation) at the indicated doses and times (FIG. 11A). Cell protein was subjected to Western blotting for the indicated proteins. The same tests were performed on LNCaP-95 cells, HEK-293 cells engineered to ectopically express ARΔ567, PC3 cells, and T47D breast cancer cells.

full-length AR and AR-V7 = experiment: Western blot protein degradation with cycloheximide, LNCaP-95 cells; conditions: endogenously expressed
Method: as §6

[3] = system: AR transcriptional program; experiment: Whole transcriptomic RNA-sequencing, gene set expression analysis; conditions: LNCaP-AR and 22Rv1 cells, 10 μM, 8 hours
Method: Negative enrichment scores (NES are shown for the AR transcriptional program.
Whole transcriptomic RNA-sequencing was performed for two castration resistant cell lines (LNCaP-AR and 22Rv1), which were exposed to JN103 (10 μM) for 8 hours. The experimental results as determined by gene set expression analysis (FIG. 10) show negative enrichment scores (NES) for the AR transcriptional program.

PC3 cell = experiment: Colony formation assay, PC3; conditions: PC3, at high concentrations, two weeks
Method: (§7) DU145, PC3LNCaP-AR (full-length AR), 22Rv1 (full-length and splice variant AR), and VCaP cells (400 cells/well of 6-well plate) were treated with indicated 0 (pure DMSO), 2, 4, 6, 8, 10 μm of JN103 for two weeks. Colonies were visualized with methylene blue staining.

[4] = system: 22Rv1 (full-length and splice variant AR); experiment: Colony formation assay, 22Rv1; conditions: 22Rv1, 2-10 μm, two weeks
Method: as §7

[5] = system: breast cancer cell line (T47D); experiment: MTT assay on non-prostate cancer cell lines; conditions: 2-8 μm, 5 days
Method: The growth-inhibitory effects of JN103 were also assessed in MTT assays on 20 non-prostate cancer cell lines. (FIG. 13). Cells were exposed to 0 (pure DMSO), 2, 4, 6, and 8 μm of JN103 for 5 days and subjected to MTT assay to determine cell viability. Results are means of quadruplicates.

AR = biological target: T2, AR (Homo sapiens, UniProt P10275); experiment: Western blot protein degradation, T47D breast cancer cells, AR; conditions: breast cancer cell line that co-expresses AR, ER, and PR (T47D)
T2 construct: a breast cancer cell line that co-expresses AR, ER, and PR; endogenous in cells; host or cells: T47D breast cancer cells
Method: as §6

[6] = biological target: T3, full-length AR overexpressed in LNCaP-AR cells (Homo sapiens, UniProt P10275); experiment: Western blot protein degradation with cycloheximide, LNCaP-AR cells
T3 construct: the full-length AR overexpressed in LNCaP-AR cells; expressed in transfected cells; host or cells: LNCaP-AR cells
Method: as §6

ARΔ567 = biological target: T4, ARΔ567 (Homo sapiens, UniProt P10275); experiment: Western blot protein degradation with cycloheximide, HEK-293 cells; conditions: ectopically expressed
T4 construct: expressed in transfected cells; host or cells: HEK-293 cells
Method: as §6

AR-null DU145 cells = experiment: Colony formation assay, DU145; conditions: DU145, 2-10 μm, two weeks
Method: as §7

[7] = system: LNCaP-AR (full-length AR); experiment: Colony formation assay, LNCaP-AR; conditions: 2-10 μm, two weeks
Method: as §7

ER or PR = experiment: Western blot protein degradation, T47D breast cancer cells, ER and PR; conditions: breast cancer cell line that co-expresses AR
Method: as §6

[8] = system: VCaP (full-length and splice variant AR); experiment: Colony formation assay, VCaP; conditions: 2-10 μm, two weeks
Method: as §7

[9] = biological target: glucocorticoid receptor (GR) (Homo sapiens, UniProt P04150); experiment: GRE-luciferase reporter assay; conditions: GR-dependent, inhibition grade
Method: (§8) The biochemical assays include reporter assays to determine the activity and specificity of these JN compounds to inhibit the transcriptional activity of the androgen receptor (AR). The reporter assays were conducted in various cell lines that either endogenously or exogenously express the full-length AR and ARV7, a constitutively active splice variant that is resistant to all clinically available AR targeting compounds. The reporter assays were performed in replicates and across a wide range of concentrations (generally […]).
as §5

[10] = system: CREB transactivation domain; experiment: CREB-TAD-luciferase reporter assay; conditions: inhibition grade
Method: as §8, §5

[11] = biological target: AR transactivation domain (Homo sapiens, UniProt P10275); experiment: AR-TAD-luciferase reporter assay; conditions: inhibition grade
Method: as §4, §5

[12] = system: c-Jun transactivation domain; experiment: JUN-TAD-luciferase reporter assay; conditions: inhibition grade
Method: as §8, §5

AP1 (jun and fos family) = experiment: AP1-luciferase reporter assay; conditions: inhibition grade
Method: as §8, §5

T1 sequence (P10275 whole entry): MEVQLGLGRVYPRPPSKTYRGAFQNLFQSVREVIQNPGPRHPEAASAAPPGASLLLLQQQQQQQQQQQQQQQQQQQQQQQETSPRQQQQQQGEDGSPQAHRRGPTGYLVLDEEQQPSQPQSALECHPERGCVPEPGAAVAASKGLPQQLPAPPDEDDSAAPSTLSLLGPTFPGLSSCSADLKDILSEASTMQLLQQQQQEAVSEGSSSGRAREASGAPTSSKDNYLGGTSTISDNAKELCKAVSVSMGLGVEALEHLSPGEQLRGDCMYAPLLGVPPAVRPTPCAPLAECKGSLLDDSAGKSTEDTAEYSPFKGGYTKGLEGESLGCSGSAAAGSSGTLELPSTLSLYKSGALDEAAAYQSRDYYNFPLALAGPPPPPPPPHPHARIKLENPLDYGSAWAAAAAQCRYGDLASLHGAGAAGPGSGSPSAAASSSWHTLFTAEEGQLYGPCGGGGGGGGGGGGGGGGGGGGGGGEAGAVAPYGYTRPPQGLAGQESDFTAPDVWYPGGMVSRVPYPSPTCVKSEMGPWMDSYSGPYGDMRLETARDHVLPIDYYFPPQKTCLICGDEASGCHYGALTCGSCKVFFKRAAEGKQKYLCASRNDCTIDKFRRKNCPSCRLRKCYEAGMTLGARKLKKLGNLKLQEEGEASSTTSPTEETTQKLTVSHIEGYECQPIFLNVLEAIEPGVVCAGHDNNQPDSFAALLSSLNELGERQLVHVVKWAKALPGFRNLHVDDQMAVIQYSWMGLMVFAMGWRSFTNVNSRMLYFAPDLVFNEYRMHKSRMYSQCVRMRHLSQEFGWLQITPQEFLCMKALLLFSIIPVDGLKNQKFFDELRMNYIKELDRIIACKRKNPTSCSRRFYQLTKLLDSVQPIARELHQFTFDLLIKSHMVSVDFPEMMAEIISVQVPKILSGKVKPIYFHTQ
Chain of glucocorticoid receptor (GR) (P04150 whole entry, species assumed, canonical isoform): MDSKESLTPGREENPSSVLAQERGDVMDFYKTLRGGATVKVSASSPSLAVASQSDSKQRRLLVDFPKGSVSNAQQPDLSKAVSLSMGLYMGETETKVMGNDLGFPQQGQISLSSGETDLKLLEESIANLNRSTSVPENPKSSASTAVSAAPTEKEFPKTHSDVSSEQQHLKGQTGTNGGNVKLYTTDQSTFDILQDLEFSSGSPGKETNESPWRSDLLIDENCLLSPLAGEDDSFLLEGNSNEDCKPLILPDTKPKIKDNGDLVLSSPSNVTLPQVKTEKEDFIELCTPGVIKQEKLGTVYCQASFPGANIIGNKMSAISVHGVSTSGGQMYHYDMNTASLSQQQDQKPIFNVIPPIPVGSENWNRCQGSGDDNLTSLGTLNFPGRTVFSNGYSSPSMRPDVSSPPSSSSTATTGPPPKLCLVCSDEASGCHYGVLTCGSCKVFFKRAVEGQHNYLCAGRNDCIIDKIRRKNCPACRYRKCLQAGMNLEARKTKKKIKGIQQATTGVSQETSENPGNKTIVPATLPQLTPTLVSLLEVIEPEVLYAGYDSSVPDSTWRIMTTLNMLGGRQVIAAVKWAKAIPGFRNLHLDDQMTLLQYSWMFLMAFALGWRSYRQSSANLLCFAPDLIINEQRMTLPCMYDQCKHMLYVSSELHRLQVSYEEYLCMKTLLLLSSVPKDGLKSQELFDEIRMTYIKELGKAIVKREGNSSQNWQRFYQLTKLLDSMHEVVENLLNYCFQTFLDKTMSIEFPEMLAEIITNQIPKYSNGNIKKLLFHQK
T3 sequence (P10275 whole entry): as the sequence (P10275 whole entry) above
Chain of AR transactivation domain (P10275 1-559 limits assumed): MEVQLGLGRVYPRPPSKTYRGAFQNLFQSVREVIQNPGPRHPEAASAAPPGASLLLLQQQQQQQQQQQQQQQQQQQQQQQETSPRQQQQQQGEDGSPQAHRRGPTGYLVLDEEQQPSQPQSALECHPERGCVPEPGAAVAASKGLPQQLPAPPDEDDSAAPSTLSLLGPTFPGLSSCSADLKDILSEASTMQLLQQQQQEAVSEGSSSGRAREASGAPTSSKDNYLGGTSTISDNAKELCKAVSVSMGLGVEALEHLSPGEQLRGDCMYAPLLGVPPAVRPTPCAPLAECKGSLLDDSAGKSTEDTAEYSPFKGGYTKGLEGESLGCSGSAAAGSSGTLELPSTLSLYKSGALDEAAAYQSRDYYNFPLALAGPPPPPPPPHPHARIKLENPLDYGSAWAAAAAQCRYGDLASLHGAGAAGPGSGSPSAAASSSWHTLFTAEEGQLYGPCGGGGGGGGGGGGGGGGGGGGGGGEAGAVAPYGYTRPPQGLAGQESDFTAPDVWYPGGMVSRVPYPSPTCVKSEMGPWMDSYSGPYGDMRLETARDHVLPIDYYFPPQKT
T4 sequence (P10275 with tags, fused parts or gaps limits assumed): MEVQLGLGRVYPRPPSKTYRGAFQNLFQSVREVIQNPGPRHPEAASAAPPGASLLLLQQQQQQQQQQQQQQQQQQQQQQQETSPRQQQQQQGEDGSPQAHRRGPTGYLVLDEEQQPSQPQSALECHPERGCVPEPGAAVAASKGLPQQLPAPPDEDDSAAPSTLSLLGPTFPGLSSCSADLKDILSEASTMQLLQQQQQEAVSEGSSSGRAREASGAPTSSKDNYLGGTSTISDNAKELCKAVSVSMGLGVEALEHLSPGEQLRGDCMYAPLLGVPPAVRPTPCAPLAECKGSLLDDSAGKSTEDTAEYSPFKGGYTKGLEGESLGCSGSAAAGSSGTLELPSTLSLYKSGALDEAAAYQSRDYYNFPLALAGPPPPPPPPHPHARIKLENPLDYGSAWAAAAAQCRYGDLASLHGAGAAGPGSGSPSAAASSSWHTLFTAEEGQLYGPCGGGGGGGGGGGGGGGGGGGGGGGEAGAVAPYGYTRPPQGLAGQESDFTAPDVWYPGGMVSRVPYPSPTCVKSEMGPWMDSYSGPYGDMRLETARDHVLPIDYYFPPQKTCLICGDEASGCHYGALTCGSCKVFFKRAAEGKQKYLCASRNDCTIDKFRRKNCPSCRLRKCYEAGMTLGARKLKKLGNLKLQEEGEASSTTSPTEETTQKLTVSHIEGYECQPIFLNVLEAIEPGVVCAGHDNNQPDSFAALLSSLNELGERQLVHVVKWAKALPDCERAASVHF

| SMILES | MTT AR-Pos [1] | MTT AR Neg [2] | also measured |
| --- | --- | --- | --- |
| C=C1CC(c2ccc(OC)cc2)=C(c2ccccc2)C1=O [JN053] | LOW | LOW | MMTV (androgen receptor (AR)): MED |
| Cc1cnc(/C(=C/c2ccc(Cl)cc2)c2ccc(F)cc2F)o1 [JN148, (E)-2-(2-(4-Chlorophenyl)-1-(2,4-difluorophenyl)vinyl)-5-methyloxazole] | LOW | LOW | – |
| C=CC(=O)NC(=O)/C(=C/c1ccc(Cl)cc1)c1ccc(F)cc1 [JN139] | LOW | LOW | – |
| O=C(/C=C/c1ccccc1)NC(=O)/C(=C/c1ccc(Cl)cc1)c1ccc(F)cc1F [JN155] | LOW | LOW | – |
| C=C(C)C(=O)NC(=O)/C(=C/c1ccc(Cl)cc1)c1ccc(F)cc1 [JN103, (E)-3-(4-Chlorophenyl)-2-(4-fluorophenyl)-N-methacryloylacrylamide] | – | – | degradation of other proteins, including actin or the GR (actin or the GR): does not affect the degradation; degradation of full-length AR and AR-V7 (full-length AR and AR-V7): potently induces time- and dose-dependent degradation; AR gene signature (gene set expression analysis) [3]: marked decrease in the AR gene signature; colony formation (PC3 cell): only mild effects; colony formation [4]: inhibits the growth; growth inhibition (MTT cell viability) [5]: significant growth inhibition; degradation of the AR (AR): induces degradation of the AR; degradation of full-length AR [6]: potently induces time- and dose-dependent degradation; degradation of ARΔ567 (ARΔ567): potently induces time- and dose-dependent degradation; colony formation (AR-null DU145 cells): limited impact on colony formation; colony formation [7]: inhibits the growth; degradation of the ER or PR (ER or PR): not the ER or PR; colony formation [8]: inhibits the growth |
| COC1=CC(=O)N(C(=O)/C(=C/c2ccc(Cl)cc2)c2ccc(F)cc2F)C1 [JN143] | LOW | LOW | – |
| NS(=O)(=O)NC(=O)/C(=C/c1ccc(Cl)cc1)c1ccc(F)cc1F [JN145, (E)-3-(4-Chlorophenyl)-2-(2,4-difluorophenyl)-N-sulfamoylacrylamide] | LOW | LOW | – |
| O=C(C1=CCN(Cc2ccccc2)CC1)/C(=C/c1ccc(Cl)cc1)c1ccccc1 [JN142, (E)-1-(1-Benzyl-1,2,3,6-tetrahydropyridin-4-yl)-3-(4-chlorophenyl)-2-phenylprop-2-en-1-one] | LOW | LOW | – |
| C=C(C)C(=O)NC(=O)/C(=C/c1ccc(Cl)cc1)c1ccc(C(F)(F)F)cc1 [JN152] | HIGH | LOW | GRE [9]: HIGH; MMTV (androgen receptor (AR)): HIGH; CREB-TAD [10]: HIGH; AR-TAD [11]: HIGH |
| C=C(Cc1ccccc1)C(=O)NC(=O)/C(=C/c1ccc(Cl)cc1)c1ccc(F)cc1F [JN150] | HIGH | HIGH | – |
| O=C(NC(=O)C1CC1)/C(=C/c1ccc(Cl)cc1)c1ccc(F)cc1F [JN147, (E)-N-(3-(4-Chlorophenyl)-2-(2,4-difluorophenyl)acryloyl)cyclopropanecarboxamide] | LOW | LOW | – |
| CNC(=O)c1ccc(N2C(=S)N(c3ccc(C#N)c(C(F)(F)F)c3)C(=O)C2(C)C)cc1F [MDV3100, reference compound] | HIGH | LOW | GRE [9]: LOW; JUN-TAD [12]: LOW; CREB-TAD [10]: LOW; AP1 (AP1 (jun and fos family)): HIGH |
| C=C(C)C(=O)NC(=O)/C(=C/c1ccc(C(F)(F)F)nc1)c1ccccc1 [JN153] | HIGH | HIGH | – |
| C#CCNC(=O)/C(=C/c1ccc(Cl)cc1)c1ccc(F)cc1F [JN144, (E)-3-(4-Chlorophenyl)-2-(2,4-difluorophenyl)-N-(prop-2-yn-1-yl)acrylamide] | LOW | LOW | – |
| O=C1CCCN1C(=O)/C(=C/c1ccc(Cl)cc1)c1ccccc1 [JN141] | LOW | LOW | – |
| N#CC1(NC(=O)/C(=C/c2ccc(Cl)cc2)c2ccc(F)cc2F)CC1 [JN146] | LOW | LOW | – |
| O=C(/C=C/C(F)(F)F)NC(=O)/C(=C/c1ccc(Cl)cc1)c1ccc(F)cc1F [JN154] | HIGH | LOW | – |
| CCC1=C(C)CN(C(=O)/C(=C/c2ccc(Cl)cc2)c2ccccc2)C1=O [JN140, (E)-1-(3-(4-Chlorophenyl)-2-phenylacryloyl)-3-ethyl-4-methyl-1,5-dihydro-2H-pyrrol-2-one] | HIGH | HIGH | – |
| C=C1CN=C(/C(=C/c2ccc(Cl)cc2)c2ccc(F)cc2F)O1 [JN149, (E)-2-(2-(4-Chlorophenyl)-1-(2,4-difluorophenyl)vinyl)-5-methylene-4,5-dihydrooxazole] | LOW | LOW | – |
| C=C(C)C(=O)NCCCNC(=O)/C(=C/c1ccc(Cl)cc1)c1ccc(F)cc1F [JN156, (E)-3-(4-Chlorophenyl)-2-(2,4-difluorophenyl)-N-(3-methacrylamidopropyl)acrylamide] | LOW | LOW | – |
| C=C(C)C(=O)OCCOC(=O)/C(=C/c1ccc(Cl)cc1)c1ccc(F)cc1F [JN151] | LOW | LOW | – |
